Data taken from patent US20180244611A1, “Modulators of the Cystic Fibrosis Transmembrane Conductance Regulator Protein and Methods of Use” (AbbVie S.à.r.l., priority 2017, published 2018).

Legend:
F508delCFTR [1] = target: T1, F508delCFTR (Homo sapiens, UniProt P13569, DEL508-508); assay: Cell Surface Expression-Horse Radish Peroxidase (CSE-HRP) assay, test compound without co-corrector; format: cell-based; conditions: for EC50: test compound without co-corrector; for Emax / Maximum % activity (without co-corrector): maximum at any tested concentration, without co-corrector; for Emax: normalized to on-plate positive control; for Maximum % activity (without co-corrector): normalized to positive control;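 on Maximum % activity (without co-corrector): percent of on-plate 2 µM positive control corrector response over DMSO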
T1 construct: expressed in transfected cells; host or cells: CFBE41o- human lung-derived epithelial cells (CFBE41o-F508delCFTR-HRP), doxycycline-inducible
Summary of the method: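 CFBE41o- cells expressing F508delCFTR with HRP in the fourth exofacial loop, induced with 0.5 μg/mL doxycycline for 72 h at 37° C, then exposed to compound alone for 18-24 h at 33° C, 8-point 3-fold series from 20 μM. Surface HRP read by luminol luminescence, normalized to positive corrector control versus DMSO; EC50 from variable-slope sigmoidal fit of three replicate plates.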

F508delCFTR [2] = target: T1, F508delCFTR; assay: Cell Surface Expression-Horse Radish Peroxidase (CSE-HRP) assay, test compound with co-corrector; format: cell-based; conditions: for Maximum % activity (with co-corrector): maximum at any tested concentration;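 on Maximum % activity (with co-corrector): percent of 2 µM positive control corrector over DMSO; co-corrector is that same compound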
Summary of the method: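 CFBE41o- cells expressing F508delCFTR with HRP in the fourth exofacial loop, induced with 0.5 μg/mL doxycycline for 72 h, then treated 18-24 h at 33° C. with compound (8 points, top 20 μM, 3-fold) plus 2 μM co-corrector. Surface HRP read by luminol luminescence; activity normalised to positive control, EC50 from variable-slope sigmoidal fit.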

[3] = CSE-HRP assay, test compound with 2 μM co-corrector
[4] = normalized to on-plate positive control, with 2 μM co-corrector
[5] = normalized to positive control, with 2 μM co-corrector

T1 sequence (P13569 with tags, fused parts or gaps DEL508-508): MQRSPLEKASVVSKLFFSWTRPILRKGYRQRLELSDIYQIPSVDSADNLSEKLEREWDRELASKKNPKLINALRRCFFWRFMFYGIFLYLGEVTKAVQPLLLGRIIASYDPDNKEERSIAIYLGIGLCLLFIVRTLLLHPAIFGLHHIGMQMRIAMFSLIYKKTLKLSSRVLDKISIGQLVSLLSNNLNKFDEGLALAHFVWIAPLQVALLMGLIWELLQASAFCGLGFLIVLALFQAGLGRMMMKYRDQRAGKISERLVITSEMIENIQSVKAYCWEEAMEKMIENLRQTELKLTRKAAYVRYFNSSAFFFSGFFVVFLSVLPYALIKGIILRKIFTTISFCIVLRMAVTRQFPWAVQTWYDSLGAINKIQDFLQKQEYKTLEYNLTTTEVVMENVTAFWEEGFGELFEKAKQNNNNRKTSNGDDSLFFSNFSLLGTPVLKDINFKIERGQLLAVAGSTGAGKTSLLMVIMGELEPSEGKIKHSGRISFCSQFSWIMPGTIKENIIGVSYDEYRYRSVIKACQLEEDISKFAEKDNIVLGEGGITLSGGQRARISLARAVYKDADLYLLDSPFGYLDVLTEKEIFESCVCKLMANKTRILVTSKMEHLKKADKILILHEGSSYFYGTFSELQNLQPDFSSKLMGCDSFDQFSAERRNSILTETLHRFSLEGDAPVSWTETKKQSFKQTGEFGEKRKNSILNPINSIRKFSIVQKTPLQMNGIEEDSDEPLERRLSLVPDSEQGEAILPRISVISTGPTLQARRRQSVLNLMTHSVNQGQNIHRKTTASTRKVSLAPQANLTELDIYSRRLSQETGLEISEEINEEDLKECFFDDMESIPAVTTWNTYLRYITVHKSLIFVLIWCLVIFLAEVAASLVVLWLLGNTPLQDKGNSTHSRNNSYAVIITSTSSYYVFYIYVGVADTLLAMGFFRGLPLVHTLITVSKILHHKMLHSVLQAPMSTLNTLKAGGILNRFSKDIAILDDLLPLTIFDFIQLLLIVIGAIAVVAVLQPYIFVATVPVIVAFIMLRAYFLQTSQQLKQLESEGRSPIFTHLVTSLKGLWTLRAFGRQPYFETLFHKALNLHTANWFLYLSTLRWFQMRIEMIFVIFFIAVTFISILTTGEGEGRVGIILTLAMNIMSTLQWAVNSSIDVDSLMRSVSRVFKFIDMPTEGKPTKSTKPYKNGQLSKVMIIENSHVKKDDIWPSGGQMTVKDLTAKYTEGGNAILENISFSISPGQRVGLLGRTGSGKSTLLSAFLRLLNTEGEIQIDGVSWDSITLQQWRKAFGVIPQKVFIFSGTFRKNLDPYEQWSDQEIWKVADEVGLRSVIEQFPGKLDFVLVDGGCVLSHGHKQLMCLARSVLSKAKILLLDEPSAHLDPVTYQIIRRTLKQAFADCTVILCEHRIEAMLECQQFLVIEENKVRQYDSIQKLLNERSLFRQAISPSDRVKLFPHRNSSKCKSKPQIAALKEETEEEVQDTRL

| Molecule | EC50 (F508delCFTR [1]; CSE-HRP assay) | Emax (F508delCFTR [1]) | EC50 (F508delCFTR [2]; [3]) | Maximum % activity (with co-corrector) (F508delCFTR [2]; [4]) | Maximum % activity (without co-corrector) (F508delCFTR [1]) | EC50 (F508delCFTR [1]) | Maximum % activity (with co-corrector) (F508delCFTR [2]; [5]) | EC50 (F508delCFTR [2]; with 2 μM co-corrector) |
| --- | --- | --- | --- | --- | --- | --- | --- | --- |
| COc1ccc(C(=O)N(C)C)c2c1C(C(=O)NS(=O)(=O)c1cccc3ccccc13)CC2 (stereo not shown) [III-187] | ≥ 10 µM | < 50% | ≥ 10 µM | + (<150) |  |  |  |  |
| COc1ccc(CN2CCCC2)c2c1C(C(=O)NS(=O)(=O)c1cccc3ccccc13)CC2 (stereo not shown) [III-188] | ≥ 10 µM | < 50% | 3 to 10 µM | + (<150) |  |  |  |  |
| (1R)-4-cyclobutyl-7-methoxy-N-(1,2,3,4-tetrahydroquinoline-8-sulfonyl)-2,3-dihydro-1H-indene-1-carboxamide [Example I-131] |  |  |  |  | +++ (≥150) | < 3 µM | +++ (≥350) | < 3 µM |
| (1S)-7-chloro-1-methyl-N-(naphthalene-1-sulfonyl)-2,3-dihydro-1H-indene-1-carboxamide [Example I-26] |  |  |  |  | ++ (≥50 and <150) | < 3 µM | +++ (≥350) | < 3 µM |
